Reference: US5593984A, “Cephalosporin derivatives” (Yuhan Corporation, priority 1992, dated 1997)
Values after ≈ are worked out from the molar mass of the structure shown.

Legend:
Type in all cases: cell-based
[1] = test system: Ps. aeruginosa ATCC 10145; assay: MIC by agar dilution, Ps. aeruginosa ATCC 10145; details: Pseudomonas aeruginosa, ATCC10145, 17 h, Mueller-Hinton agar, read-out: Minimal Inhibitory Concentration (MIC)
Procedure: (§1) These MIC values were determined by agar dilution method: that is, two-fold dilutions of each of the test compounds were made and dispersed in a Mueller-Hinton agar medium; standard test strain which had the 10^6 CFU (Colony Forming Unit) per ml was inoculated on the medium with microplanter (Toyo, Japan), and incubated at 35°-37° C. for 17±1 hours. The structures of Ceftazidime (CAZ) and Cefotaxime (CTX) which are used as control compounds are as follows: [drawing 12]

E. coli DY-1 = assay: MIC by agar dilution, E. coli DY-1; details: Escherichia coli, DY1, 17 h; E. coli DY-1; agar dilution, Mueller-Hinton agar; read-out: Minimal Inhibitory Concentration (MIC)
Procedure: as §1

[2] = test system: Ps. aeruginosa NCTC 10490; assay: MIC by agar dilution, Ps. aeruginosa NCTC 10490; details: Pseudomonas aeruginosa, NCTC10490, 17 h, Mueller-Hinton agar, read-out: Minimal Inhibitory Concentration (MIC)
Procedure: as §1

Ps. aeruginosa DY-2 = assay: MIC by agar dilution, Ps. aeruginosa DY-2; details: Pseudomonas aeruginosa, DY2, 17 h; Ps. aeruginosa DY-2; agar dilution, Mueller-Hinton agar; read-out: Minimal Inhibitory Concentration (MIC)
Procedure: as §1

P. vulgaris NCTC 8313 = assay: MIC by agar dilution, P. vulgaris NCTC 8313; details: Proteus vulgaris, NCTC8313, 17 h; P. vulgaris NCTC 8313; agar dilution, Mueller-Hinton agar; read-out: Minimal Inhibitory Concentration (MIC)
Procedure: as §1

Ent. cloacae IFO 13535 = assay: MIC by agar dilution, Ent. cloacae IFO 13535; details: Enterobacter cloacae, IFO13535, 17 h; Ent. cloacae IFO 13535; agar dilution, Mueller-Hinton agar; read-out: Minimal Inhibitory Concentration (MIC)
Procedure: as §1

E. coli NIHJ JC-2 = assay: MIC by agar dilution, E. coli NIHJ JC-2; details: Escherichia coli, NIHJJC2, 17 h; E. coli NIHJ JC-2; agar dilution, Mueller-Hinton agar; read-out: Minimal Inhibitory Concentration (MIC)
Procedure: as §1

B. subtilis ATCC 6633 = assay: MIC by agar dilution, B. subtilis ATCC 6633; details: Bacillus subtilis, ATCC6633, 17 h; B. subtilis ATCC 6633; agar dilution, Mueller-Hinton agar; read-out: Minimal Inhibitory Concentration (MIC)
Procedure: as §1

[3] = test system: S. epidermidis ATCC 12228; assay: MIC by agar dilution, S. epidermidis ATCC 12228; details: Staphylococcus epidermidis, ATCC12228, 17 h; S. epidermidis ATCC 12228; agar dilution, Mueller-Hinton agar; read-out: Minimal Inhibitory Concentration (MIC)
Procedure: as §1

Staph. aureus ATCC 6538P = assay: MIC by agar dilution, Staph. aureus ATCC 6538P; details: Staphylococcus aureus, ATCC6538P, 17 h; Staph. aureus ATCC 6538P; agar dilution, Mueller-Hinton agar; read-out: Minimal Inhibitory Concentration (MIC)
Procedure: as §1

Staph. aureus C-5113 = assay: MIC by agar dilution, Staph. aureus C-5113; details: Staphylococcus aureus, C5113, 17 h, Mueller-Hinton agar, read-out: Minimal Inhibitory Concentration (MIC)
Procedure: as §1

Ent. aerogenes IFO 12979 = assay: MIC by agar dilution, Ent. aerogenes IFO 12979; details: Klebsiella aerogenes, IFO12979, 17 h, Mueller-Hinton agar, read-out: Minimal Inhibitory Concentration (MIC)
Procedure: as §1

[4] = test system: Ser. marcescens IFO 12648; assay: MIC by agar dilution, Ser. marcescens IFO 12648; details: Serratia marcescens, IFO12648, 17 h; Ser. marcescens IFO 12648; agar dilution, Mueller-Hinton agar; read-out: Minimal Inhibitory Concentration (MIC)
Procedure: as §1

Staph. aureus Smith = assay: MIC by agar dilution, Staph. aureus Smith; details: Staphylococcus aureus, 17 h, Mueller-Hinton agar, read-out: Minimal Inhibitory Concentration (MIC)
Procedure: as §1

E. coli No. 29 = assay: MIC by agar dilution, E. coli No. 29; details: Escherichia coli, 17 h; E. coli No. 29; agar dilution, Mueller-Hinton agar; read-out: Minimal Inhibitory Concentration (MIC)
Procedure: as §1

Prov. stuartii IFO 12930 = assay: MIC by agar dilution, Prov. stuartii IFO 12930; details: Providencia stuartii, IFO12930, 17 h, Mueller-Hinton agar, read-out: Minimal Inhibitory Concentration (MIC)
Procedure: as §1

Staph. aureus C-5216 = assay: MIC by agar dilution, Staph. aureus C-5216; details: Staphylococcus aureus, C5216, 17 h, Mueller-Hinton agar, read-out: Minimal Inhibitory Concentration (MIC)
Procedure: as §1

M. morganii DY-1 = assay: MIC by agar dilution, M. morganii DY-1; details: Morganella morganii, DY1, 17 h; M. morganii DY-1; agar dilution, Mueller-Hinton agar; read-out: Minimal Inhibitory Concentration (MIC)
Procedure: as §1

K. pneumoniae NCTC 9632 = assay: MIC by agar dilution, K. pneumoniae NCTC 9632; details: Klebsiella pneumoniae, NCTC9632, 17 h; K. pneumoniae NCTC 9632; agar dilution, Mueller-Hinton agar; read-out: Minimal Inhibitory Concentration (MIC)
Procedure: as §1

Staph. aureus C-57 = assay: MIC by agar dilution, Staph. aureus C-57; details: Staphylococcus aureus, C57, 17 h, Mueller-Hinton agar, read-out: Minimal Inhibitory Concentration (MIC)
Procedure: as §1

Compound | MIC [1] [µg/mL] | MIC (E. coli DY-1) [µg/mL] | MIC [2] [µg/mL] | MIC (Ps. aeruginosa DY-2) [µg/mL] | MIC (P. vulgaris NCTC 8313) [µg/mL] | MIC (Ent. cloacae IFO 13535) [µg/mL] | MIC (E. coli NIHJ JC-2) [µg/mL] | MIC (B. subtilis ATCC 6633) [µg/mL] | MIC [3] [µg/mL] | MIC (Staph. aureus ATCC 6538P) [µg/mL] | MIC (Staph. aureus C-5113) [µg/mL] | MIC (Ent. aerogenes IFO 12979) [µg/mL] | MIC [4] [µg/mL] | MIC (Staph. aureus Smith) [µg/mL] | MIC (E. coli No. 29) [µg/mL] | MIC (Prov. stuartii IFO 12930) [µg/mL] | MIC (Staph. aureus C-5216) [µg/mL] | MIC (M. morganii DY-1) [µg/mL] | MIC (K. pneumoniae NCTC 9632) [µg/mL] | MIC (Staph. aureus C-57) [µg/mL]
CON=C(C(=O)NC1C(=O)N2C(C(=O)[O-])=C(C[n+]3ccn4c([N+](=O)[O-])ccc4c3)CSC12)c1csc(N)n1 (stereo not drawn) [Ex. 14, 7-β-[(Z)-2-(2-aminothiazol-4-yl)-2-methoxyiminoacetamido]-3-(6-nitropyrrolo[1,2-a]pyrazinium-2-yl)methyl-3-cephem-4-carboxylate] | 6.25 (≈ 11.2 µM) | 0.05 (≈ 0.0895 µM) | 1.56 (≈ 2.79 µM) | 25 (≈ 44.8 µM) | 0.012 (≈ 0.0215 µM) | 0.78 (≈ 1.4 µM) | 0.1 (≈ 0.179 µM) | 0.39 (≈ 0.698 µM) | 0.05 (≈ 0.0895 µM) | 0.39 (≈ 0.698 µM) | 3.13 (≈ 5.6 µM) | 0.05 (≈ 0.0895 µM) | 0.1 (≈ 0.179 µM) | 1.56 (≈ 2.79 µM) | 0.05 (≈ 0.0895 µM) | ≤ 0.006 | 1.56 (≈ 2.79 µM) | 0.05 (≈ 0.0895 µM) | 0.05 (≈ 0.0895 µM) | 25 (≈ 44.8 µM)
CON=C(C(=O)NC1C(=O)N2C(C(=O)[O-])=C(C[n+]3ccn4c(C(N)=O)ccc4c3)CSC12)c1csc(N)n1 (stereo not drawn) [Ex. 15, 7-β-[(Z)-2-(2-aminothiazol-4-yl)-2-methoxyiminoacetamido]-3-(6-carbamoylpyrrolo[1,2-a]pyrazinium-2-yl)methyl-3-cephem-4-carboxylate] | 0.39 (≈ 0.701 µM) | ≤ 0.006 | 0.1 (≈ 0.18 µM) | 3.13 (≈ 5.62 µM) | 0.012 (≈ 0.0216 µM) | 0.1 (≈ 0.18 µM) | ≤ 0.006 | 0.05 (≈ 0.0898 µM) | 0.025 (≈ 0.0449 µM) | 0.2 (≈ 0.359 µM) | 0.78 (≈ 1.4 µM) | ≤ 0.006 | 0.012 (≈ 0.0216 µM) | 0.39 (≈ 0.701 µM) | ≤ 0.006 | ≤ 0.006 | 0.78 (≈ 1.4 µM) | ≤ 0.006 | ≤ 0.006 | 12.5 (≈ 22.5 µM)
CCON=C(C(=O)NC1C(=O)N2C(C(=O)[O-])=C(C[n+]3ccn4c(C(N)=O)ccc4c3)CSC12)c1csc(N)n1 (stereo not drawn) [Ex. 16, 7-β-[(Z)-2-(2-aminothiazol-4-yl)-2-ethoxyiminoacetamido]-3-(6-carbamoylpyrrolo[1,2-a]pyrazinium-2-yl)methyl-3-cephem-4-carboxylate] | 1.56 (≈ 2.73 µM) | 0.025 (≈ 0.0438 µM) | 0.39 (≈ 0.683 µM) | 6.25 (≈ 11 µM) | 0.012 (≈ 0.021 µM) | 0.78 (≈ 1.37 µM) | 0.1 (≈ 0.175 µM) | 0.1 (≈ 0.175 µM) | 0.05 (≈ 0.0876 µM) | 0.2 (≈ 0.351 µM) | 1.56 (≈ 2.73 µM) | 0.025 (≈ 0.0438 µM) | 0.1 (≈ 0.175 µM) | 0.78 (≈ 1.37 µM) | 0.05 (≈ 0.0876 µM) | 0.025 (≈ 0.0438 µM) | 1.56 (≈ 2.73 µM) | 0.025 (≈ 0.0438 µM) | 0.025 (≈ 0.0438 µM) | 12.5 (≈ 21.9 µM)
CON=C(C(=O)NC1C(=O)N2C(C(=O)[O-])=C(C[n+]3ccn4c(C(=O)O)ccc4c3)CSC12)c1csc(N)n1 (stereo not drawn) [Ex. 17, 7-β-[(Z)-2-(2-aminothiazol-4-yl)-2-methoxyiminoacetamido]-3-(6-carboxypyrrolo[1,2-a]pyrazinium-2-yl)methyl-3-cephem-4-carboxylate] | 1.56 (≈ 2.8 µM) | 0.025 (≈ 0.0448 µM) | 0.2 (≈ 0.359 µM) | 3.13 (≈ 5.61 µM) | 0.012 (≈ 0.0215 µM) | 0.39 (≈ 0.699 µM) | 0.025 (≈ 0.0448 µM) | 0.1 (≈ 0.179 µM) | 0.1 (≈ 0.179 µM) | 0.39 (≈ 0.699 µM) | 1.56 (≈ 2.8 µM) | 0.025 (≈ 0.0448 µM) | 0.05 (≈ 0.0897 µM) | 0.78 (≈ 1.4 µM) | 0.012 (≈ 0.0215 µM) | ≤ 0.006 | 1.56 (≈ 2.8 µM) | 0.025 (≈ 0.0448 µM) | 0.025 (≈ 0.0448 µM) | 25 (≈ 44.8 µM)
CON=C(C(=O)NC1C(=O)N2C(C(=O)[O-])=C(C[n+]3ccn4c(C(C)=O)ccc4c3)CSC12)c1csc(N)n1 (stereo not drawn) [Ex. 18, 7-β-[(Z)-2-(2-aminothiazol-4-yl)-2-methoxyiminoacetamido]-3-(6-acetylpyrrolo[1,2-a]pyrazinium-2-yl)methyl-3-cephem-4-carboxylate] | 1.56 (≈ 2.81 µM) | 0.012 (≈ 0.0216 µM) | 0.2 (≈ 0.36 µM) | 6.25 (≈ 11.2 µM) | 0.012 (≈ 0.0216 µM) | 0.1 (≈ 0.18 µM) | 0.012 (≈ 0.0216 µM) | 0.2 (≈ 0.36 µM) | 0.05 (≈ 0.09 µM) | 0.2 (≈ 0.36 µM) | 0.78 (≈ 1.4 µM) | 0.012 (≈ 0.0216 µM) | 0.012 (≈ 0.0216 µM) | 0.78 (≈ 1.4 µM) | 0.025 (≈ 0.045 µM) | 0.012 (≈ 0.0216 µM) | 1.56 (≈ 2.81 µM) | 0.025 (≈ 0.045 µM) | 0.025 (≈ 0.045 µM) | 25 (≈ 45 µM)
